Experimental data reported in patent US9730445B2, “Herbicidal compositions comprising 4-amino-3-chloro-5-fluoro-6-(4-chloro-2-fluoro-3-methoxyphenyl) pyridine-2-carboxylic acid or a derivative thereof and fungicides” (DOW AGROSCIENCES LLC, priority 2013, dated 2017).
Where “and” joins values, the source holds several entries; their conditions need not be identical. Equal values may be shown once.

How the values were obtained:
LEFCH [1] = experiment: In-water applied weed control, transplanted paddy rice (greenhouse); type: in vivo, Leptochloa chinensis (L.) Nees (Chinese sprangletop)
Procedure: Weed seeds or nutlets of the desired test plant species were planted in puddled soil (mud) prepared by mixing a shredded, non-sterilized mineral soil (50.5 percent silt, 25.5 percent clay, and 24 percent sand, with a pH of about 7.6 and an organic matter content of about 2.9 percent) and water at a 1:1 volumetric ratio. The prepared mud was dispensed in 365 mL aliquots into 16-ounce (oz.) non-perforated plastic pots with a surface area of 86.59 square centimeters (cm^2) leaving a headspace of 3 centimeters (cm) in each pot. Rice seeds were planted in Sun Gro MetroMix® 306 planting mixture, which typically has a pH of 6.0 to 6.8 and an organic matter content of about 30 percent, in plastic plug trays. Seedlings at the second or third leaf stage of growth were transplanted into 860 mL of mud contained in 32-oz. non-perforated plastic pots with a surface area of 86.59 cm^2 4 days prior to herbicide application. The paddy was created by filling the headspace of the pots with 2.5 to 3 cm of water. When required to ensure good germination and healthy plants, a fungicide treatment and/or other chemical or physical treatment was applied. The plants were grown for 4-22 days in a greenhouse with an approximate 14 hour (h) photoperiod which was maintained at about 29° C. during the day and about 26° C. during the night. Nutrients were added as Osmocote® (17:6:10, N:P:K+minor nutrients) at 2 g per cup. Water was added on a regular basis to maintain the paddy flood, and supplemental lighting was provided with overhead metal halide 1000-Watt lamps as necessary. The plants were employed for testing when they reached the first through fourth true leaf stage. […]
Treatment requirements for each compound or fungicidal component were calculated based upon the rates being tested, the concentration of active ingredient or acid equivalent in the formulation, an application volume of 2 mL per component per pot, and an application area of 86.59 cm^2 per pot.
For formulated compounds, a measured amount was placed in an individual 100 or 200 mL glass vial and was dissolved in a volume of 1.25% (v/v) Agri-Dex® crop oil concentrate to obtain application solutions. […]
The treated plants and control plants were placed in a greenhouse as described above and water was added as needed to maintain a paddy flood. After approximately 3 weeks the condition of the test plants as compared with that of the untreated plants was determined visually and scored on a scale of 0 to 100 percent where 0 corresponds to no injury or growth inhibition and 100 corresponds to complete kill. […]

LEFCH [2] = experiment: Postemergence foliar-applied weed control, direct-seeded rice (greenhouse); type: in vivo, Leptochloa chinensis (L.) Nees (Chinese sprangletop)

## COc1c(Cl)ccc(-c2nc(C(=O)OCc3ccccc3)c(Cl)c(N)c2F)c1F [Compound A Benzyl Ester]
LEFCH [1]; Compound A Benzyl Ester 8 g ae/ha
  Visual Weed Control (%) - 19 DAA LEFCH Obs: 3%
LEFCH [1]; Compound A Benzyl Ester 16 g ae/ha
  Visual Weed Control (%) - 19 DAA LEFCH Obs: 8%
LEFCH [2]; 19 DAA, r9-11 ester 8/16/32 g ae/ha alone, r12-13 flutolanil 280/560 g ai/ha alone, r14-19 ester 8/16/32 at each of 280, 560
  Visual Weed Control (%) - 19 DAA LEFCH Obs: 45% and 50%
LEFCH [2]; r9-11 ester 8/16/32 g ae/ha alone, r12-14 kasugamycin 17.5/35/70 g ai/ha alone, r15-23 ester 8/16/32 at each of 17.5, 35, 70
  Visual Weed Control (%)—21 DAA LEFCH Obs: 40% and 65%
LEFCH [2]; r10-11 ester 16/32 g ae/ha alone, r12 mancozeb 840 g ai/ha alone, r13-14 ester 16/32 + 840
  Visual Weed Control (%) - 21 DAA LEFCH Obs: 15% and 25%
LEFCH [2]; r10-12 ester 8/16/32 g ae/ha alone, r13-14 isoprothiolane 266/533 g ai/ha alone, r15-20 ester 8/16/32 at each of 266, 533
  Visual Weed Control (%) - 21 DAA LEFCH Obs: 50% and 60% and 70%
LEFCH [2]; r38-39 ester 8/16 g ae/ha alone, r40 isotianil 380 g ai/ha alone, r41-42 ester 8/16 + 380
  Visual Weed Control (%)—21 DAA LEFCH Obs: 25% and 40%
LEFCH [2]; r42-43 ester 16/32 g ae/ha alone, r44-46 difenoconazole 50/100/200 g ai/ha alone, r47-52 ester 16/32 at each of 50, 100, 200
  Visual Weed Control (%) - 21 DAA LEFCH Obs: 25% and 43%
